# Values joined by “and” are separate entries in the source; they are usually repeats but may differ in a detail not shown here. Equal entries are not always repeated.
# What was measured:
# Xenopus laevis embryos [1] = assay: Fictive swimming in immobilized stage 37/8 Xenopus embryos (ventral root recording); format: in vivo
# Text: The rhythmic swimming behaviour of Xenopus laevis frog embryos (FIG. 22A) is recognised as a powerful model system for exploring spinal neural networks controlling locomotion. The intensity, frequency and duration of swimming episodes are regulated by two inhibitory pathways: a descending brainstem GABA pathway that turns off swimming and a spinal glycinergic pathway that controls the cycle periods attained during swimming.
# In the present study Xenopus embryos were used to test the action of 4-chloropropofol (a compound according to the first aspect of the invention) upon fictive swimming in immobilized embryos.
# Stage 37/8 embryos (FIG. 22Ai) were immobilized in α-bungarotoxin, secured on a Sylgard block mounted in a recording chamber and recirculated with frog ringer. The flank skin on the left and right sides of the trunk was removed to expose the inter-myotomal clefts wherein lie the ventral roots and then three glass suction electrodes were positioned at rostral and caudal levels on the left side and rostrally on the right side (FIG. 22Aiii) to record “fictive” swimming (FIG. 22B). Swimming activity was evoked by a brief 1 msec current pulse applied to the tail skin via a fourth glass suction electrode. Drugs were applied directly to the bath.
# [2] = target: T1, α-subunits of glycine receptors from the rat coexpressed with human β subunits (Rattus norvegicus, UniProt P07727); assay: Example 2: co-activation of the current response to 10 μM glycine, whole-cell mode, HEK293 cells; format: cell-based
# T1 construct: expressed in transfected cells; host or cells: HEK293
# T1 sequence (P07727 29-457): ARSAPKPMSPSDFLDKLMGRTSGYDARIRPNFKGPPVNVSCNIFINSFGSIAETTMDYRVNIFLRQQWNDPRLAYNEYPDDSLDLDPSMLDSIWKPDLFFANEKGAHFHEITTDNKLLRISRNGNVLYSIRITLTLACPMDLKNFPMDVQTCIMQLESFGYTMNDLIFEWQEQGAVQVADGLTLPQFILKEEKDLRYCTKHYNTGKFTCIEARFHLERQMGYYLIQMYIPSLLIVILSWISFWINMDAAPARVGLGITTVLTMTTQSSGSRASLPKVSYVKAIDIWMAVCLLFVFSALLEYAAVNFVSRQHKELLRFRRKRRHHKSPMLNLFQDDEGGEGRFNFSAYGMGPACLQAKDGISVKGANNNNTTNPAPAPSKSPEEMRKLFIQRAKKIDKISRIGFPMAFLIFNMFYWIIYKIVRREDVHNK
# T1 sequence (P48167 23-497 partner): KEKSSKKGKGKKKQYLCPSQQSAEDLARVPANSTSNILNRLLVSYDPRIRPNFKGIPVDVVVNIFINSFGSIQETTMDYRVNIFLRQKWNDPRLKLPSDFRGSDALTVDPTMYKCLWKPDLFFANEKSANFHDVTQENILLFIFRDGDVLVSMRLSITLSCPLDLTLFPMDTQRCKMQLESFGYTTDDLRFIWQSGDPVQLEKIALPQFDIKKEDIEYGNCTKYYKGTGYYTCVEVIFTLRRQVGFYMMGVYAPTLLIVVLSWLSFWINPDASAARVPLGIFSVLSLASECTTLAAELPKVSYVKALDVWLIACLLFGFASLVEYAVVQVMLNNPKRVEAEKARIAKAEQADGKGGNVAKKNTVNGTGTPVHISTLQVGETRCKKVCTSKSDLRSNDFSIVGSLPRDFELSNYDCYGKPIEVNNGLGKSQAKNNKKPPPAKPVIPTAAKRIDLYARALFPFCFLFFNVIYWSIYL
# Method: (§1) Small cells were studied in the whole-cell mode using an ultra-fast application device.
# The results presented in FIG. 10 were corroborated by repeating the tests carried out to provide the data shown in FIG. 10 to provide the data shown in FIG. 11. […] Note from FIGS. 10 and 11 that the co-activating effect is observed in the concentration range between […]. The co-activating effect is overridden by inhibitory effects at higher concentrations (≧1000 μM). […] Small cells were studied in the whole-cell mode using an ultra-fast application device.
# [3] = target: T1, α-subunits of glycine receptors from the rat coexpressed with human β subunits; assay: Example 2: direct activation in the absence of glycine, whole-cell mode, HEK293 cells; format: cell-based
# Text: as §1
# The solid line is a Hill fit to the data with the indicated parameters. Note that the direct activating effect is observed at 1000-fold higher concentrations than the co-activating effect.
# [4] = target: T2, recombinant glycine alpha1 receptors (Homo sapiens, UniProt P23415); assay: Glycine (EC10)-evoked current in Xenopus oocytes; format: cell-based; details: 100 nM, preliminary experiments
# T2 construct: expressed in transfected cells; host or cells: Xenopus oocytes
# T2 sequence (P23415 29-457): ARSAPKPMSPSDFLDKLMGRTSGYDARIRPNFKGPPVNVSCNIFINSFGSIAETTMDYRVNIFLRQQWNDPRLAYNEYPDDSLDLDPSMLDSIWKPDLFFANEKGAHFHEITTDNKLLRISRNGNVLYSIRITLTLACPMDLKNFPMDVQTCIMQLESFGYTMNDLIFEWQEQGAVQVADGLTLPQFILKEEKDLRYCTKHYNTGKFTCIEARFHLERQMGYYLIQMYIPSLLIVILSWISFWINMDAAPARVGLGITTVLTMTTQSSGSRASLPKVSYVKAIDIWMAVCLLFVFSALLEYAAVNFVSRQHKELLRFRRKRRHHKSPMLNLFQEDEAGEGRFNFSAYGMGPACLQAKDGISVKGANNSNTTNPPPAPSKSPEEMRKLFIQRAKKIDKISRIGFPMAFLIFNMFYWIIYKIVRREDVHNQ
# native glycine receptors = assay: Rat in vitro spinal cord preparation (sIPSCs, tonic conductance); details: 100 nM-1 μM, preliminary experiments
# glycine receptors = details: reported; cited from earlier work
# Xenopus laevis embryos [5] = details: cited from earlier work
# [6] = 10 μM in the presence of 1 μM strychnine
# [7] = 10 μM in the presence of 1 μM strychnine, pooled n=3
# [8] = 10 μM in the presence of 40 μM bicuculline methiodide
# [9] = wash after 10 μM in 1 μM strychnine
# [10] = wash after 10 μM in 40 μM bicuculline methiodide
smiles,measurement,setting,value
"CC(C)c1cc(Cl)cc(C(C)C)c1O [4-chloropropofol, 4-chloro-2,6 di-isopropylphenol]",change in episode duration,Xenopus laevis embryos [1]; 10 μM alone,no significant change
same,increase in left-right delay,Xenopus laevis embryos [1]; 10 μM alone,19%
same,increase in rostro-caudal delay,Xenopus laevis embryos [1]; 10 μM alone,8%
same,increase in cycle periods,"Xenopus laevis embryos [1]; 10 μM alone, pooled from 5 experiments",approximately 20%
same,decrease in cycle periods at the end of the episode,Xenopus laevis embryos [1]; [6],3.4 ms
same,decrease in episode duration,Xenopus laevis embryos [1]; [6],17 s
same,increase in cycle periods at the start of the episode,Xenopus laevis embryos [1]; [6],0.5 ms
same,decrease in cycle periods (not significant),Xenopus laevis embryos [1]; [7],less than 2%
same,effect on episode duration,Xenopus laevis embryos [1]; [7],little or no effect
same,effect on left-right delay,Xenopus laevis embryos [1]; [7],little or no effect
same,increase in cycle periods at the end of the episode,Xenopus laevis embryos [1]; [8],20.3 ms
same,increase in cycle periods at the start of the episode,Xenopus laevis embryos [1]; [8],8.2 ms
same,increase in episode duration,Xenopus laevis embryos [1]; [8],2 s
same,average cycle period,Xenopus laevis embryos [1]; 20 minutes after addition of 10 μM 4-chloropropofol in bicuculline,61.3 ms
same,reversal of effect on cycle period by saline wash,Xenopus laevis embryos [1]; after 10 μM alone,25-30%
same,reversal of effect on left-right delay by saline wash,Xenopus laevis embryos [1]; after 10 μM alone,22%
same,reversal of effect on rostro-caudal delay by saline wash,Xenopus laevis embryos [1]; after 10 μM alone,12%
same,average cycle period,Xenopus laevis embryos [1]; after bicuculline methiodide wash,54.5 ms
same,effect at the GABAA receptor,Xenopus laevis embryos [1]; at 1004 (so in the source),negligible effect
same,influence on glycine receptors,Xenopus laevis embryos [1]; at the same concentration,powerful influence
same,change in rostro-caudal delay,Xenopus laevis embryos [1]; in the presence of 1 μM strychnine,small increase
same,change in rostro-caudal delay,Xenopus laevis embryos [1]; in the presence of 40 μM bicuculline methiodide,clear decrease
same,decrease in cycle periods at the end of the episode by strychnine wash,Xenopus laevis embryos [1]; [9],5.4 ms
same,decrease in cycle periods at the start of the episode by strychnine wash,Xenopus laevis embryos [1]; [9],3 ms
same,increase in episode duration by strychnine wash,Xenopus laevis embryos [1]; [9],2 s
same,further decrease in cycle periods by the strychnine wash,"Xenopus laevis embryos [1]; wash after 10 μM in 1 μM strychnine, pooled n=3",3% and 1%
same,further increase of cycle periods at the end of the episode after bicuculline wash,Xenopus laevis embryos [1]; [10],6.5 ms
same,reduction of cycle period at the start of the episode by bicuculline wash,Xenopus laevis embryos [1]; [10],2 ms
same,reduction of episode duration by bicuculline wash,Xenopus laevis embryos [1]; [10],2 s
same,EC50 values in the presence of glycine (co-activation),[2]; Example 2,single-digit nanomolar range
same,concentrations above which peak current amplitude declines (probable open channel block),[2]; co-applied with 10 μM glycine,above 10 μM
same,concentrations at which the co-activating effect is overridden by inhibitory effects,[2]; co-applied with 10 μM glycine,≥ 1000 µM
same,"enhancement of glycine receptor function / EC50 for co-activation, fold lower concentrations than propofol",[2]; glycine receptors heterologously expressed in HEK293 cells,1000 fold
same,EC50 values in the absence of the natural transmitter glycine,[3]; Example 2,single-digit micromolar range
same,"direct activating effect, fold higher concentrations than the co-activating effect",[3]; absence of glycine versus 10 μM glycine,1000 fold
same,effect on glycine (EC10)-evoked current,[4],greatly enhanced
same,effect on sIPSCs (mediated by synaptic glycine receptors),native glycine receptors,prolongation
same,effect on tonic conductance (mediated by extrasynaptic glycine receptors),native glycine receptors,increase
"CC(C)c1cccc(C(C)C)c1O [propofol, 2,6-di-isopropylphenol]","activation of glycine receptors, fold higher concentrations than EC50 at GABAA receptors",glycine receptors,10 fold
same,concentration affecting swimming via potentiation of the glycine receptor,Xenopus laevis embryos [5]; higher concentrations,40 µM
same,concentration inhibiting swimming via actions at the GABAA receptor,Xenopus laevis embryos [5]; low concentration,10 µM

# Source: patent publication US20160095823A1, “METHODS OF USING PROPOFOL DERIVATIVES FOR ANALGESIA” (priority 2005, published 2016)
